From EP2472259B1, “Specific molecules clinging to a lure” (Forschungszentrum Jülich GmbH, priority 2006, dated 2014)

What was measured:
Assay in all cases: anti-phage ELISA, relative SH3 binding activity of phage clones
[1] = test system: Lyn-SH3; conditions: phage-displayed peptide, Fig. 2f; binding to Lyn-SH3 compared with Lck-SH3
Text: (§1) "anti-Phage-ELISA" - Bestimmung der relativen SH3-Bindungsaktivität einzelner Phagenklone
(§2) Dieser Bindungstest ist ein häufig verwendeter Test zur schnellen Bestimmung relativer Bindungsstärken selektierter Peptide, die hierbei noch physikalisch mit dem Phagen verknüpft vorliegen. Dieser Schritt dient auch zur Eliminierung von (bei dieser Methode nicht selten auftretenden) Phagenvarianten, die z. B. aufgrund ihrer Affinität zur Plastikoberfläche der verwendeten Mikrotiterplatten, angereichert werden und die somit zur Verfälschung der Ergebnisse führen können. Eine grundsätzliche Beschreibung der Methode findet sich z. B. unter Sparks et al. Methods Enzymol. 1995; 255:498-509.
(§3) GST-SH3 Protein wurde in einer Konzentration von 1-10 µg/ml in Tris-Bis über Nacht bei 4°C in Mikrotiterplatten immobilisiert. Verbleibende Bindungsstellen wurden durch 2-stündige Inkubation mit Blockierungspuffer (Bis-Tris mit 2 % Magermilchpulver) abgesättigt. In einer anderen Mikrotiterplatte wurden zuerst je 100 µl Suspension der zu testenden Phagenvariante mit 100 µl Blockierungspuffer für 20 Minuten vorinkubiert und erst dann für 1 Stunde zum immobilisierten GST-SH3 Protein gegeben. Nach einem Waschschritt mit Bis-Tris wurde ein Meerrettich-Peroxidase-konjugierter Antikörper zugegeben und die Platten für eine weitere Stunde inkubiert. […]

[2] = test system: Hck-SH3; conditions: phage-displayed peptide, Fig. 2f; binding to Hck-SH3 compared with Lck-SH3
Text: as §1, §2, §3

[3] = test system: Lck-SH3; parameters: species or system menschlichen; conditions: phage-displayed peptide, Fig. 2f; binding to Lck-SH3 compared with other SH3 domains
Text: as §1, §2, §3

relative SH3-Bindungsaktivität [1]: ähnlich gut
relative SH3-Bindungsaktivität [2]: ähnlich gut
relative SH3-Bindungsaktivität [3]: nicht die stärkste Bindung
Sequence: HSKYPLPPLPSL [PD1, control peptide from standard selection with Lck-SH3 as bait]
